Molecules are shown by their SMILES.

Holding throughout (type): cell-based
One test deals with T1, human TLR9 (Homo sapiens, UniProt Q9NR96).
T1 construct: host or cells: HEK-Blue cells
T1 sequence (Q9NR96 26-1032): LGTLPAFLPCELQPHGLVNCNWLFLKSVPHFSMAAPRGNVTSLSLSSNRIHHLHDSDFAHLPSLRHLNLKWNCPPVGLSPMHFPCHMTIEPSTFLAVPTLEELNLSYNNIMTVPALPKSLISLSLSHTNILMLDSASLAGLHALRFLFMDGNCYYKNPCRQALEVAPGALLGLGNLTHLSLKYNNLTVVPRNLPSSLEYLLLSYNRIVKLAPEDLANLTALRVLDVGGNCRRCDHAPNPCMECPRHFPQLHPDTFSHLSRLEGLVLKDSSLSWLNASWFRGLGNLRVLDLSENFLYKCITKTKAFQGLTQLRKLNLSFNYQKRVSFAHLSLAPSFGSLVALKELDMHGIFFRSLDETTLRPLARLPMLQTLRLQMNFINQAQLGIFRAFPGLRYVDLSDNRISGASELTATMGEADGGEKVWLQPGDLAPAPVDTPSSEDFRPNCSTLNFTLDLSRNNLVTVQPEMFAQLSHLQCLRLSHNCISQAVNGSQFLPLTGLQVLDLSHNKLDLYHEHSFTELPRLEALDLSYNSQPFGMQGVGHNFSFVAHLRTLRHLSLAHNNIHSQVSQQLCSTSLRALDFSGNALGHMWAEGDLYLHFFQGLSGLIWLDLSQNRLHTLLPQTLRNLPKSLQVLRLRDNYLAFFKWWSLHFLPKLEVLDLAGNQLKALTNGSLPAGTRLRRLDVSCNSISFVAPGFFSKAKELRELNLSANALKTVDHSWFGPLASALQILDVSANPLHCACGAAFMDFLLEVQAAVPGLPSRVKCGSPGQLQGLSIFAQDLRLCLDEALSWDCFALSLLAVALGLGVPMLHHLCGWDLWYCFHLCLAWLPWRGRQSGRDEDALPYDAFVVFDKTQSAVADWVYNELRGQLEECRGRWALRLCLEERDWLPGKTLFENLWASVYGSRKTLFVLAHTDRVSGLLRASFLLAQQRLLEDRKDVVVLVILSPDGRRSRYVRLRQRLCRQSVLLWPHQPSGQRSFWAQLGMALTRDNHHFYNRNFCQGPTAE
The experiment in a line: TLR9 inhibition reporter assay (HEK-Blue SEAP). Conditions: HEK-Blue cells overexpressing human TLR9, stimulated with ODN2006 5 nM, 22 hour incubation. An outline of the steps:
(§1)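 HEK-Blue cells overexpressing the receptor, with an NF-κB/AP-1-driven SEAP reporter, were pre-treated with compound (0.05 nM to 50 μM) for 30 min at room temperature. Stimulation used gardiquimod 7.5 μM (TLR7), R848 15.9 μM (TLR8) or ODN2006 5 nM (TLR9), followed by 22 h at 37 °C.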

The next test deals with T2, human TLR7 (Homo sapiens, UniProt Q9NYK1).
T2 construct: host or cells: HEK-Blue cells
T2 sequence (Q9NYK1 27-1049): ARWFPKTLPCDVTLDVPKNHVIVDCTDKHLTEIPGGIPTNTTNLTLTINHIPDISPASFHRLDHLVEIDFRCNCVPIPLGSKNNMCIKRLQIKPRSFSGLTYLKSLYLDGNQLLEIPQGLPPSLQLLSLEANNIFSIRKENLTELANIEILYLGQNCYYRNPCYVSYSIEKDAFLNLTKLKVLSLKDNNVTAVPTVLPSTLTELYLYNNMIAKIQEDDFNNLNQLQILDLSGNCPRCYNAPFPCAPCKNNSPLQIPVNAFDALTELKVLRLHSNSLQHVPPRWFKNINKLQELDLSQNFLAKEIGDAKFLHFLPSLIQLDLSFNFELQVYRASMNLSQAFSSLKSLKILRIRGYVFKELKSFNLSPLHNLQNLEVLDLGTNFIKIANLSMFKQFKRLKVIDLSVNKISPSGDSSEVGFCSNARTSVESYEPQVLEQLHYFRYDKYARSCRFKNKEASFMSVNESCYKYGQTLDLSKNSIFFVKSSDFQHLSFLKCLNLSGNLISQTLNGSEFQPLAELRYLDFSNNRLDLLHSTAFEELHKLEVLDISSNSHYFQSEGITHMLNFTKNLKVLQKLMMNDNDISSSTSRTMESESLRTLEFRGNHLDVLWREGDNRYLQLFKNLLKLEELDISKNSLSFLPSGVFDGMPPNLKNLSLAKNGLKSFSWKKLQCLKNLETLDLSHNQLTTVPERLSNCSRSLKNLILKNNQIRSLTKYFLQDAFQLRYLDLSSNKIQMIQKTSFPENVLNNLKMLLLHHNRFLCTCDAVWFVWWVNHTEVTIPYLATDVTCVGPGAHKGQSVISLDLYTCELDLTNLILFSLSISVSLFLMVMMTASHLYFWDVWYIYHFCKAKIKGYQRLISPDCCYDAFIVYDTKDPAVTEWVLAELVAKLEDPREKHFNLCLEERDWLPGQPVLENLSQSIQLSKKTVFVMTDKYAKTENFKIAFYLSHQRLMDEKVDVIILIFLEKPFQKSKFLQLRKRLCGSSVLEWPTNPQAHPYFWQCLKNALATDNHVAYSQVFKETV
The experiment in a line: TLR7 inhibition reporter assay (HEK-Blue SEAP). The conditions noted are these: HEK-Blue cells overexpressing human TLR7, stimulated with gardiquimod 7.5 μM, 22 hour incubation. The method, boiled down:
as §1

In another test the target is T3, human TLR8 (Homo sapiens, UniProt Q9NR97).
T3 construct: host or cells: HEK-Blue cells
T3 sequence (Q9NR97 27-1041): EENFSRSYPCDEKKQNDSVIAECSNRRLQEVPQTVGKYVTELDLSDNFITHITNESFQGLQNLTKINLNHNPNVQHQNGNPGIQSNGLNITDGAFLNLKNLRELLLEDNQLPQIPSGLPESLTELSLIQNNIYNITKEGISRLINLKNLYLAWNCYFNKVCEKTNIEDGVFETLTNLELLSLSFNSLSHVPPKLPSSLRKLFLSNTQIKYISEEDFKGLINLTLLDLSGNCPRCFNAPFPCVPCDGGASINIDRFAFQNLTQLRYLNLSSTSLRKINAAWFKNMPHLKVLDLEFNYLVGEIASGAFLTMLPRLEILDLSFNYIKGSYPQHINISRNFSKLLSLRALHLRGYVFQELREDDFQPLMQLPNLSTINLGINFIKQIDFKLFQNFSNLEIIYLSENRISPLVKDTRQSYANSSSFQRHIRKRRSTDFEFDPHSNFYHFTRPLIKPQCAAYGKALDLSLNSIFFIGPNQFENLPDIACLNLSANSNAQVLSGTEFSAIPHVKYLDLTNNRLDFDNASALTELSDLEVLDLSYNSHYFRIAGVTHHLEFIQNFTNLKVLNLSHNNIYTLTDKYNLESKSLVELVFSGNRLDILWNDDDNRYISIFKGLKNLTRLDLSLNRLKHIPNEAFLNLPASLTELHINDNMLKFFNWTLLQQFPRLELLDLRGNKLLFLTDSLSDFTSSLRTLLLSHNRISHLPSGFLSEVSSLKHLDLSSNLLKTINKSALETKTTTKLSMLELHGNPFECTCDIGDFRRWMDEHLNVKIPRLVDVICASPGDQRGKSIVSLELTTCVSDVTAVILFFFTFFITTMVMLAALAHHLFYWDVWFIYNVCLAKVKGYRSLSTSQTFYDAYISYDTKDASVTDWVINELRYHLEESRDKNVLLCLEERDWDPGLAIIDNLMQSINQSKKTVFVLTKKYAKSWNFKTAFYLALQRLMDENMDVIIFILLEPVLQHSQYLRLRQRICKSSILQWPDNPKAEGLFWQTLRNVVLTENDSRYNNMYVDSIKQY
The experiment in a line: TLR8 inhibition reporter assay (HEK-Blue SEAP). The conditions noted are these: HEK-Blue cells overexpressing human TLR8, stimulated with R848 15.9 μM, 22 hour incubation. The method, boiled down:
as §1

For the compound `CCc1cc2c(C3CCN(CCC#N)CC3)n[nH]c2cc1-c1cc(C)c2ncnn2c1` [Example 106, 3-(4-(5-ethyl-6-(8-methyl-[1,2,4]triazolo[1,5-a]pyridin-6-yl)-1H-indazol-3-yl)piperidin-1-yl)propanenitrile], the IC50 against human TLR9 turned out to be 39.8 µM; at human TLR7, 7.2 nM; on human TLR8, 0.2 nM.
The corresponding values for `CCc1cc2c(C3CCN(C(=O)CCCN(C)C)CC3)n[nH]c2cc1-c1cc(C)c2ncnn2c1` [Example 107, 4-(dimethylamino)-1-(4-(5-ethyl-6-(8-methyl-[1,2,4]triazolo[1,5-a]pyridin-6-yl)-1H-indazol-3-yl)piperidin-1-yl)butan-1-one] are 16.7 µM, 10.3 nM and 1.7 nM.
Consider `CCc1cc2c(C3CCN(CCC(F)(F)F)CC3)n[nH]c2cc1-c1cc(C)c2ncnn2c1` [Example 108, 6-(5-ethyl-3-(1-(3,3,3-trifluoropropyl)piperidin-4-yl)-1H-indazol-6-yl)-8-methyl-[1,2,4] triazolo[1,5-a]pyridine], for which the figures for the concentration for half-maximal inhibition (IC50) against human TLR9, at human TLR7 and against human TLR8 were 23.5 µM, 5.6 nM and 0.2 nM, respectively.
In the case of `CCc1cc(-c2cc(C)c3ncnn3c2)cc2[nH]nc(C3CCNCC3)c12` [Example 109, 6-(4-ethyl-3-(piperidin-4-yl)-1H-indazol-6-yl)-8-methyl-[1,2,4]triazolo[1,5-a]pyridine], the IC50 against human TLR9 is 1.63 µM; at human TLR7, 2 nM; against human TLR8, 2.6 nM.
For `CCc1cc(-c2cc(C)c3ncnn3c2)cc2[nH]nc(C3CCN(C(=O)CN(C)C)CC3)c12` [Example 110, 2-(dimethylamino)-1-(4-(4-ethyl-6-(8-methyl-[1,2,4]triazolo[1,5-a]pyridin-6-yl)-1H-indazol-3-yl)piperidin-1-yl)ethan-1-one], the IC50 against human TLR9 turned out to be 3.86 µM; against human TLR7 it was 2.4 nM; at human TLR8 it was 1.8 nM.
Consider `Cc1cc(-c2cc3[nH]nc(C4CCN(C(=O)CN(C)C)CC4)c3cc2C(C)C)cn2ncnc12` [Example 111, 2-(dimethylamino)-1-(4-(5-isopropyl-6-(8-methyl-[1,2,4]triazolo[1,5-a]pyridin-6-yl)-1H-indazol-3-yl)piperidin-1-yl)ethan-1-one], for which the half-inhibitory concentration (IC50) was 18.6 µM against human TLR9, 1.8 nM at human TLR7 and 0.5 nM on human TLR8.
Take `Cc1cc(-c2cc3[nH]nc(C4CCN(CC(=O)N(C)C)CC4)c3cc2C(C)C)cn2ncnc12` [Example 112, 2-(4-(5-isopropyl-6-(8-methyl-[1,2,4]triazolo[1,5-a]pyridin-6-yl)-1H-indazol-3-yl)piperidin-1-yl)-N,N-dimethylacetamide]: the IC50 turned out to be 20.9 µM against human TLR9, 1.5 nM against human TLR7 and 0.3 nM on human TLR8.
The corresponding values for `Cc1cc(-c2cc3[nH]nc(C4CCN(CC(C)(C)O)CC4)c3cc2C(C)C)cn2ncnc12` [Example 113, 1-(4-(5-isopropyl-6-(8-methyl-[1,2,4]triazolo[1,5-a]pyridin-6-yl)-1H-indazol-3-yl)piperidin-1-yl)-2-methylpropan-2-ol] are 20.3 µM, 1.5 nM and 0.1 nM.
The corresponding values for `Cc1cc(-c2cc3[nH]nc(C4CCC(N(C)C)CC4)c3cc2C(C)C)cn2ncnc12` (stereo not drawn) [Example 115, 4-(5-isopropyl-6-(8-methyl-[1,2,4]triazolo[1,5-a]pyridin-6-yl)-1H-indazol-3-yl)-N,N-dimethylcyclohexan-1-amine] are 6.7 µM, 0.6 nM and 0.1 nM.
For `Cc1cc(-c2cc3[nH]nc(C4CCN(C5CCOCC5)CC4)c3cc2C(C)C)cn2ncnc12` [Example 116, 6-(5-isopropyl-3-(1-(tetrahydro-2H-pyran-4-yl)piperidin-4-yl)-1H-indazol-6-yl)-8-methyl-[1,2,4]triazolo[1,5-a]pyridine], the IC50 at human TLR9 was determined as 6.55 µM; against human TLR7, 0.6 nM; against human TLR8, 0.1 nM.

These data come from US12172995B2, “Substituted indole and indazole compounds” (BRISTOL-MYERS SQUIBB COMPANY, priority 2018, dated 2024).
